Data published in patent US20220265817A1, “THERAPEUTIC COMPOSITIONS AND METHODS FOR TREATING HEPATITIS B” (priority 2017, published 2022).
Read-outs that look alike come from different tables or passages of the source.

Tests used:
[1] = test system: hepatitis B virus (HBV); experiment: Mouse model of HBV (pHBV1.3 hydrodynamic injection), serum HBV DNA quantitative PCR; format: in vivo, NOD.CB17-Prkdc^scid/J mice
Protocol: On Day −7, 10 micrograms of the plasmid pHBV1.3 (as per Guidotti, L., et al., Journal of Virology, 1995, 69(10): 6158-6169) was administered to NOD.CB17-Prkdc^scid/J mice via hydrodynamic injection (HDI; rapid 1.6 mL injection into the tail vein). […] As a readout of the anti-HBV effect of various treatments, serum HBV DNA concentration in mice was measured from total extracted DNA using a quantitative PCR assay (primer/probe sequences from Tanaka, Y., et al., Journal of Medical Virology, 2004, 72: 223-229).
Animals were treated with Compound 3 as follows: Starting on Day 0, a 50 mg/kg or 100 mg/kg dosage of Compound 3 was administered orally to animals on a twice-daily frequency for a total of fourteen doses between Days 0 and 7. Compound 3 was dissolved in a co-solvent formulation for administration. Negative control animals were administered either the co-solvent formulation alone, or saline. Animals were treated with lipid nanoparticle (LNP)-encapsulated HBV-targeting siRNAs as follows: On Day 0, an amount of test article equivalent to 0.1 mg/kg siRNA was administered intravenously.
The effect of these treatments was determined by collecting blood on Days 0 (pre-treatment), 4 & 7 and analyzing it for serum HBV DNA content.
Animals were treated with Compound 3 as follows: Starting on Day 0, a 100 mg/kg dosage of Compound 3 was administered orally to animals on a twice-daily frequency for a total of fourteen doses between Days 0 and 7. Compound 3 was dissolved in a co-solvent formulation for administration. Negative control animals were administered either the co-solvent formulation alone, or saline. Animals were treated with ETV as follows: Starting on Day 0, either a 100 ng/kg or a 300 ng/kg dosage of ETV was administered orally to animals on a once-daily frequency for a total of seven doses between Days 0 and 6. ETV was dissolved in DMSO to 2 mg/mL and then diluted in saline for administration.
The effect of these treatments was determined by collecting blood on Days 0 (pre-treatment), 4 & 7 and analyzing it for serum HBV DNA content. Samples with Ct values below the lower limit of quantitation (LLOQ) were set to one-half LLOQ for calculation of group means.

[2] = test system: HBV rcDNA in AML12-HBV10 cells; experiment: AML12-HBV10 cell culture system, rcDNA quantitation using bDNA assay, MacSynergy II; format: cell-based, mouse hepatocyte cell line; conditions: for EC50: rcDNA, AML12-HBV10 cells, 48 hrs, read-out: Inhibitor EC50; for inhibition at 0.01 µM: Compound 3 0.010 μM; for inhibition at 0.02 µM: Compound 3 0.020 μM; for inhibition at 0.039 µM: Compound 3 0.039 μM; for inhibition at 0.078 µM: Compound 3 0.078 μM; for inhibition at 0.313 µM: Compound 3 0.313 μM; for inhibition at 0.625 µM: Compound 3 0.625 μM; for inhibition at 1.25 µM: Compound 3 1.250 μM
Protocol: In vitro combination studies were conducted using the method of Prichard and Shipman (Prichard M N, and Shipman C Jr., Antiviral Research, 1990, 14 (4-5), 181-205; and Prichard M N, et. al., MacSynergy II). The AML12-HBV10 cell line was developed as described in Campagna et al. (Campagna et. al., J. Virology, 2013, 87(12), 6931-6942). It is a mouse hepatocyte cell line stably transfected with the HBV genome, and which can express HBV pregenomic RNA and support HBV rcDNA (relaxed circular DNA) synthesis in a tetracycline-regulated manner. AML12-HBV10 cells were plated in 96 well tissue-culture treated microtiter plates in DMEM/F12 medium supplemented with 10% fetal bovine serum +1% penicillin-streptomycin without tetracycline and incubated in a humidified incubator at 37° C. and 5% CO2 overnight. […] The two inhibitors were tested both singly as well as in combinations in a checkerboard fashion such that each concentration of inhibitor A was combined with each concentration of inhibitor B to determine their combination effects on inhibition of rcDNA production. Following a 48 hour-incubation, the level of rcDNA present in the inhibitor-treated wells was measured using a bDNA assay (Affymetrix) with HBV specific custom probe set and manufacturer's instructions. […] Concurrently, the effect of inhibitor combinations on cell viability was assessed using replicate plates that were used to determine the ATP content as a measure of cell viability using the cell-titer glo reagent (Promega) as per manufacturer's instructions.

[3] = test system: D type HBV in primary human hepatocytes (HBeAg); experiment: microbe, parasite or virus in culture; format: cell-based; conditions: Hepatitis B virus, Hepatocyte
Method in brief: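 Primary hepatocytes isolated by liver perfusion and Percoll-purified were infected with genotype D HBV one day post-seeding. Compounds were added on day 2 (7 concentrations, 3-fold dilutions, triplicate), with medium refreshed every other day. Day-8 supernatant HBeAg was measured by ELISA and expressed as % inhibition versus DMSO control.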

[4] = Hepatitis B virus, AML12HBV10, in Mus musculus, ETV μM: 0.075, 0.025, 0.008, 0.003, 0.001, 0
[5] = Hepatitis B virus, AML12HBV10, in Mus musculus, SIRNA-NP μg/mL: 0.5, 0.167, 0.056, 0.019, 0.006, 0

CC[C@@H](C)NS(=O)(=O)c1ccc(F)c(C(=O)Nc2ccc(F)c(F)c2)c1 [Compound 3]
Serum HBV DNA, % of individual pre-treatment baseline (Day 0) ([1]; Example 2, Day 4, Compound 3 50 mg/kg oral twice daily, mean ± SEM): 13 ± 4%
Serum HBV DNA, % of individual pre-treatment baseline (Day 0) ([1]; Example 2, Day 4, Compound 3 100 mg/kg oral twice daily): 8.6 ± 1.5%
Serum HBV DNA, % of individual pre-treatment baseline (Day 0) ([1]; Example 2, Day 7, Compound 3 50 mg/kg oral twice daily): 33 ± 9%
Serum HBV DNA, % of individual pre-treatment baseline (Day 0) ([1]; Example 2, Day 7, Compound 3 100 mg/kg oral twice daily): 12 ± 5%
Serum HBV DNA, % of individual pre-treatment baseline (Day 0) ([1]; Example 3, Day 4, Compound 3 100 mg/kg oral twice daily, mean ± SEM): 9.3 ± 2.5%
Serum HBV DNA, % of individual pre-treatment baseline (Day 0) ([1]; Example 3, Day 7, Compound 3 100 mg/kg oral twice daily): 1.2 ± 0.3%
EC50 ([2]; Hepatitis B virus, AML12HBV10, in Mus musculus, 48 h): 0.25 µM
inhibition at 0.01 µM [2, 4]: -3.19%
inhibition at 0.01 µM [2, 5]: -1.98%
inhibition at 0.02 µM [2, 4]: 0.62%
inhibition at 0.02 µM [2, 5]: -20.5%
inhibition at 0.039 µM [2, 4]: 7.38%
inhibition at 0.039 µM [2, 5]: -16.9%
inhibition at 0.078 µM [2, 4]: -1.81%
inhibition at 0.078 µM [2, 5]: 20.1%
inhibition at 0.313 µM [2, 4]: 71%
inhibition at 0.313 µM [2, 5]: 59.4%
inhibition at 0.625 µM [2, 4]: 80.8%
inhibition at 0.625 µM [2, 5]: 79.9%
inhibition at 1.25 µM [2, 4]: 86.7%
inhibition at 1.25 µM [2, 5]: 88.1%
inhibition at 2.5 µM ([2]; Hepatitis B virus, AML12HBV10, in Mus musculus, Compound 3 2.500 μM, ETV μM: 0.075, 0.025, 0.008, 0.003, 0.001, 0): 90.5%
inhibition at 2.5 µM ([2]; Hepatitis B virus, AML12HBV10, in Mus musculus, Compound 3 2.5 μM, SIRNA-NP μg/mL: 0.5, 0.167, 0.056, 0.019, 0.006, 0): 89.7%
EC50 [2]: 0.231 µM
EC50 ([3]; 456 h, read-out: Inhibitor B EC50): 8.85 µM
EC50 ([3]; 576 h, read-out: Inhibitor B EC50 HBeAg): 8.58 µM
inhibition at 0.06173 µM ([3]; read-out: AVERAGE % INHIBITION HBeAg, COMPOUND 3 61.73 nM alone): -11.3%
inhibition at 0.18519 µM ([3]; read-out: AVERAGE % INHIBITION HBeAg, COMPOUND 3 185.19 nM alone): -16%
inhibition at 0.55556 µM ([3]; read-out: AVERAGE % INHIBITION HBeAg, COMPOUND 3 555.56 nM alone): -5.39%
inhibition at 1.66667 µM ([3]; read-out: AVERAGE % INHIBITION HBeAg, COMPOUND 3 1666.67 nM alone): 2.34%
inhibition at 5 µM ([3]; read-out: AVERAGE % INHIBITION HBeAg, COMPOUND 3 5000.00 nM alone): 27.3%
inhibition at 61.73 µM ([3]; read-out: AVERAGE % INHIBITION HBeAg, COMPOUND 3 61.73 μM alone): -11.1%
inhibition at 185.19 µM ([3]; read-out: AVERAGE % INHIBITION HBeAg, COMPOUND 3 185.19 μM alone): -4.9%
inhibition at 555.56 µM ([3]; read-out: AVERAGE % INHIBITION HBeAg, COMPOUND 3 555.56 μM alone): -1.02%
inhibition at 0.06859 µM ([3]; read-out: AVERAGE % INHIBITION, TAF 0.00 nM, COMPOUND 3 68.59 nM): -5.05%
inhibition at 0.20576 µM ([3]; read-out: AVERAGE % INHIBITION, TAF 0.00 nM, COMPOUND 3 205.76 nM): -6.33%
inhibition at 0.61728 µM ([3]; read-out: AVERAGE % INHIBITION, TAF 0.00 nM, COMPOUND 3 617.28 nM): 2.77%
inhibition at 1.85185 µM ([3]; read-out: AVERAGE % INHIBITION, TAF 0.00 nM, COMPOUND 3 1851.85 nM): 29.7%
inhibition at 5.55556 µM ([3]; read-out: AVERAGE % INHIBITION, TAF 0.00 nM, COMPOUND 3 5555.56 nM): 40.4%
EC50 ([3]; read-out: Inhibitor EC50): 8.85 µM
